# Assay results published in patent US20160296498A1, “Ketorolac Sublingual Spray Formulations” (Insys Development Company, Inc., priority 2015, published 2016).
# Assay: Room temperature storage of ketorolac formulated at different pH
# Assay type: physicochemical
# Details: formulated with a pH of less than 5 or greater than 9
compound,measurement,value
"O=C(c1ccccc1)c1ccc2n1CCC2C(=O)O (stereo not shown) [ketorolac, Ketorolac]",degradation when stored at room temperature,would degrade
